Source: US20220228172A1 (priority 2019, published 2022)
Entries after “also recorded” stand apart in the source; their conditions may differ.

What was measured:
Format in all cases: cell-based, vesicular stomatitis virus
VSV-P-prot [1] = test system: VSV-P-prot
VSV-L-Prot [2] = test system: VSV-L-Prot
VSV-ΔP-RFP = test system: VSV-ΔP-RFP
VSV-L-Prot [3] = test system: VSV-L-Prot; remark: listed apart in the source
[4] = test system: VSV-GFP-Prot-L (VSV-Prot-Off)
VSV-P-prot [5] = test system: VSV-P-prot; remark: listed apart in the source
[6] = test system: standard recombinant VSV without P-prot control mechanism
VSV-GP-Luc-IL12-Prot-Off = test system: VSV-GP-Luc-IL12-Prot-Off
VSV-GP-IL12 = test system: VSV-GP-IL12
VSV-GP-TM-IL12-Prot-Off = test system: VSV-GP-TM-IL12-Prot-Off
VSV-GP-IL12-Prot-Off = test system: VSV-GP-IL12-Prot-Off

Q: `CC(C)CN(C[C@@H](O)[C@H](Cc1ccccc1)NC(=O)O[C@H]1CCOC1)S(=O)(=O)c1ccc(N)cc1` [amprenavir] was tested. Which “viral gene expression (GFP signal) of VSV-P-prot” value (VSV-P-prot [1]) did it give?
A: Its value is “strong GFP signal within 24 hours in the presence but not in the absence”.

Q: And the “viral replication (plaque formation) of VSV-P-prot” value (VSV-P-prot [1])?
A: Its value is “protease inhibitor-dependent”.

Q: What about the “amprenavir dose at which VSV-L-prot activity started” value (VSV-L-Prot [2]) of the same compound?
A: The value was 100 nM.

Q: And the “amprenavir dose of maximum VSV-L-prot activity” value (VSV-L-Prot [2])?
A: Its value is 30 µM.

Q: What about the “RFP signal in VSV-ΔP-RFP infected cells” value (VSV-ΔP-RFP) of the same compound?
A: The value was “only detectable in the presence of P196PR2 and a specific HIV protease inhibitor”.

Q: And the “VSV-L-Prot replication in presence of protease inhibitor” value (VSV-L-Prot [3])?
A: Its value is “replicates to high titers in its presence”.

Q: What about the “APV dose at which VSV-Prot-OFF activity started to decrease” value [4] of the same compound?
A: The value was 30 nM.

Q: What about the “amprenavir concentration at which VSV-GFP-Prot-L activity started to decline” value [4] of the same compound?
A: The value was 1 µM.

Q: What about the “amprenavir concentrations at which VSV-GFP-Prot-L activity was high” value [4] of the same compound?
A: Its value is 0 to 300 nM.

Q: And the “effect on VSV-GFP-Prot-L activity (GFP expression, plaque assays)” value [4]?
A: Its value is “stop of virus activity”.

Q: And the “VSV-P-prot activity at doses above the plateau” value (VSV-P-prot [5])?
A: Its value is “deteriorated at higher doses”.

Q: And the “amprenavir dose at which VSV-P-prot activity started” value (VSV-P-prot [5])?
A: Its value is 100 nM.

Q: What about the “effect of amprenavir on viral replication of standard recombinant VSV” value [6] of the same compound?
A: Its value is “not affected”.

Q: Which “virus titer of VSV-GP-Luc-IL12-Prot-Off with and without linker” value (VSV-GP-Luc-IL12-Prot-Off) does the source give for `COC(=O)N[C@H](C(=O)N[C@@H](Cc1ccccc1)[C@@H](O)CN(Cc1ccc(-c2ccccn2)cc1)NC(=O)[C@@H](NC(=O)OC)C(C)(C)C)C(C)(C)C` [atazanavir] here?
A: The value was “inversely correlated”.

Q: What about the “virus titer of VSV-GP-IL12” value (VSV-GP-IL12) of the same compound?
A: The value was “uneffected”.

Q: And the “virus titer of VSV-GP-TM-IL12-Prot-Off (-w/ol, -fl)” value (VSV-GP-TM-IL12-Prot-Off)?
A: The value was “inversely correlated”.

Q: Which results are given for `CC(C)(C)NC(=O)[C@@H]1CN(Cc2cccnc2)CCN1C[C@@H](O)C[C@@H](Cc1ccccc1)C(=O)N[C@H]1c2ccccc2C[C@H]1O` [indinavir]?
A: viral gene expression (GFP signal) of VSV-P-prot (VSV-P-prot [1]): facilitated; viral replication (plaque formation) of VSV-P-prot (VSV-P-prot [1]): facilitated; VSV-L-Prot replication in presence of protease inhibitor (VSV-L-Prot [3]): replicates to high titers in its presence

Q: With `Cc1cccc(C)c1OCC(=O)N[C@@H](Cc1ccccc1)[C@@H](O)C[C@H](Cc1ccccc1)NC(=O)[C@H](C(C)C)N1CCCNC1=O` [lopinavir] as the compound, how does the “regulation of VSV-P-prot (data not shown)” value (VSV-P-prot [1]; 10 μM) read?
A: The value was “shown to regulate VSV-P-prot”.

Q: `CC(C)(C)NC(=O)[C@@H]1C[C@@H]2CCCC[C@@H]2CN1C[C@@H](O)[C@H](Cc1ccccc1)NC(=O)[C@H](CC(N)=O)NC(=O)c1ccc2ccccc2n1` [saquinavir] was tested. Which “viral gene expression (GFP signal) of VSV-P-prot” value (VSV-P-prot [1]) did it give?
A: The value was “facilitated”.

Q: And the “viral replication (plaque formation) of VSV-P-prot” value (VSV-P-prot [1])?
A: The value was “facilitated”.

Q: What about the “VSV-L-Prot replication in presence of protease inhibitor” value (VSV-L-Prot [3]) of the same compound?
A: The value was “replicates to high titers in its presence”.

Q: And the “IL12 expression in supernatant (ELISA)” value (VSV-GP-Luc-IL12-Prot-Off)?
A: Its value is “inversely correlated”.

Q: And the “inhibition of VSV-GFP-Prot-L replication” value [4]?
A: Its value is “even stronger inhibition of virus replication than amprenavir; also recorded: strongest suppression of viral replication”.

Q: And the “virus titer of VSV-GP-IL12-Prot-Off with and without linker” value (VSV-GP-IL12-Prot-Off)?
A: The value was “dependent on the presence and concentration; also recorded: inversely correlated”.
